Structures can show the parent of a compound that is named as a salt. Where two headings read alike, the source gives them in different places.
Key:
LSD1 = LSD1 (Homo sapiens (Human), UniProt O60341); experiment: LSD1 enzyme activity detection (HTRF); type: biochemical; settings: read-out: Inhibition of enzymatic activity of LSD1 IC50
NCI-H1417 cells = experiment: In vitro cell proliferation detection (CellTiter-Glo, 7 days); type: cell-based; settings: Homo sapiens, 168 h; NCI-H1417 cells, 7 days, CellTiter-Glo; read-out: NCI-H1417 proliferation inhibition IC50

Row | SMILES | IC50 (LSD1; HTRF, H3K4me1 substrate) | IC50 (NCI-H1417 cells) | IC50 (LSD1)
1 | COc1ccc(-c2c(O)cc(N3CCC(N)CC3)nc2-c2ccc(C#N)c(F)c2)cn1 [Example 22, 4-(6-(4-aminopiperidin-1-yl)-4-hydroxy-6′-methoxy-[3,3′-bipyridine]-2-yl)-2-fluorobenzonitrile] | 9.03 nM | 34.9 nM | 
2 | COc1ccc(-c2c(O)cc(N3CCC(NCC(C)(C)O)CC3)nc2-c2ccc(C#N)c(F)c2)cc1F [Example 45, 2-fluoro-4-(3-(3-fluoro-4-methoxyphenyl)-4-hydroxy-6-(4-((2-hydroxy-2-methylpropyl)amino)piperidin-1-yl)pyridin-2-yl)benzonitrile hydrochloride] | 184 nM | 160 nM | 
3 | O=C(c1cc(CN[C@@H]2C[C@H]2c2ccc(F)cc2)nc(-c2ccc(N3CCOCC3)cc2)n1)N1CCC(F)(F)CC1 [Example 244, (4,4-difluoropiperidin-1-yl)(6-(((1R,2S)-2-(4-f1uorophenyl)cyclopropyl)amino)methyl)-2-(4-morpholinophenyl) pyrimidin-4-yl)methanone hydrochloride] | 116 nM | 5.07 nM | 
4 | O=C(c1cc(CN[C@@H]2C[C@H]2c2ccc(F)cc2)nc(-c2ccc(-n3cccn3)cc2)n1)N1CCOCC1 [Example 229] | 13 nM | 2.05 nM | 
5 | CS(=O)(=O)N1CCN(c2cc(CN[C@@H]3C[C@H]3c3ccc(F)cc3)nc(-c3ccc(C#N)cc3)n2)CC1 [Example 264, 4-(4-((((1R,2S)-2-(4-fluoro-phenyl)cyclopropyl)amino)methyl)-6-(4-(methylsulfonyl)piperazin-1-yl)pyrimidin-2-yl)benzonitrile] | 87.6 nM | 27.4 nM | 
6 | O=C(c1cc(CN[C@@H]2C[C@H]2c2ccc(F)cc2)nc(-c2ccc(N3CCOCC3)cc2)n1)N1CCOCC1 [Example 245, (6-((1R,2S)-2-(4-fluorophenyl)cyclopropyl)amino)methyl)-2-(4-morpholinophenyl) pyrimidin-4-yl) (morpholino)methanone hydrochloride] | 39.1 nM | 1.98 nM | 
7 | Cc1noc2cc(-c3sc(C(=O)N4C5CCC4CC(N)C5)cc3-c3ccncc3)c(F)cc12 (stereo not shown) [Example 204, (3-amino-8-azabicyclo [3.2.1]octane-8-yl) (5-(5-fluoro-3-methylbenzo [d]isoxazol-6-yl)-4-(pyridin-4-yl)thiophen-2-yl)methanone hydrochloride] | 12.2 ± 7.3 nM | 118 nM | 
8 | COc1ccc(-c2c(O)cc(N3C4CCC3CC(N)C4)nc2-c2ccc(C#N)c(F)c2)cc1O (stereo not shown) [Example 37, 4-(6-(3-amino-8-azabicyclo[3.2.1]octane-8-yl)-4-hydroxy-3-(3-hydroxy-4-methoxyphenyl)pyridin-2-yl)-2-fluorobenzonitrile] | 15.1 nM | 173 nM | 
9 | N#Cc1ccc(-c2cc(C(=O)N3C4CCC3CC(N)C4)sc2-c2ccc3cc[nH]c3c2)cc1F (stereo not shown) [Example 200, 4-(5-(3-amino-8-azabicyclo [3.2.1]octane-8-carbonyl)-2-(1-hydro-indol-6-yl)thiophen-3-yl)-2-fluorobenzonitrile] | 0.69 nM | 34 nM | 
10 | CS(=O)(=O)N1CCN(C(=O)c2cc(CN[C@@H]3C[C@H]3c3ccc(F)cc3)nc(-c3ccc(F)c(O)c3)n2)CC1 [Example 238, (2-(4-fluoro-3-hydroxy phenyl)-6-(((1R,2S)-2-(4-fluorophenyl)cyclo-propyl)amino)methyl) pyrimidin-4-yl)(4-(methyl-sulfonyl)piperazin-1-yl) methanone hydrochloride] | 98 ± 1 nM | 5.31 nM | 
11 | CNC1CCCN(c2nc(-c3ccc(C#N)c(F)c3)c(-c3ccc(OC)c(F)c3)c3nccn23)C1 (stereo not shown) [Example 119, 2-fluoro-4-(8-(3-fluoro-4-methoxyphenyl)-5-(3-(methylamino)piperidin-1-yl)imidazolo[1,2-c]pyrimidin-7-yl) benzonitrile] | 9.54 ± 1.2 nM | 39.1 nM | 
12 | CC(C)(O)COc1ccc(-c2c(O)cc(N3CCC(N)CC3)nc2-c2ccc(C#N)c(F)c2)cc1F [Example 38, 4-(6-(4-aminopiperine-1-yl)-3-(3-fluoro-4-(2-hydroxy-2-methylpropoxy)phenyl)-4-hydroxypyridin-2-yl)-2-fluorobenzonitrile hydrochloride] | 57.6 nM | 179 nM | 
13 | COc1ccc(C#Cc2c(-c3ccc(C#N)c(F)c3)nc(N3CCC(N)CC3)n3ccnc23)cc1F [Example 122, 4-(5-(4-aminopiperidin-1-yl)-8-(3-fluoro-4-methoxyphenyl)ethynyl)imidazolo [1,2-c]pyrimidin-7-yl)-2-fluorobenzonitrile hydrochloride] | 8.68 ± 0.76 nM | 30.2 nM | 
14 | COc1ccc(-c2c(-c3ccc(C#N)c(F)c3F)nc(N3C4CCC3CC(N)C4)n3ccnc23)cc1F (stereo not shown) [Example 183, 4-(5-(3-amino-8-azabicyclo[3.2.1]octane-8-yl)-8-(3-fluoro-4-methoxyphenyl)imidazolo[1,2-c]pyrimidin-7-yl)-2,3-difluorobe nzonitrile hydrochloride] | 3.6 ± 0.6 nM | 6.28 nM | 
15 | CNC1CCCN(c2ccnn3c(-c4ccc(C)cc4)c(-c4ccc(C#N)cc4)cc23)C1 (stereo not shown) [Example 197, 4-(4-(3-(methylamino)piperidin-1-yl)-7-(p-tolyl)pyrrolo[1,2-b]pyridazin-6-yl]benzonitrile hydrochloride] |  | 24.2 nM | 9.44 ± 5.96 nM
16 | CNC1CCCN(c2cc(O)c(-c3ccc(OC)c(F)c3)c(-c3ccc(C#N)c(F)c3)n2)C1 (stereo not shown) [Example 16, 2-fluoro-4-(3-(3-fluoro-4-methoxyphenyl)-4-hydroxy-6-(3-(methylamino)piperidin-1-yl)pyridin-2-yl)benzonitrile] | 15.2 ± 3.7 nM | 38 nM | 

More lines, in order of falling IC50 (LSD1; HTRF, H3K4me1 substrate), values ahead:

Row | IC50 (LSD1; HTRF, H3K4me1 substrate) | IC50 (NCI-H1417 cells) | SMILES | IC50 (LSD1)
17 | 4.9 ± 1.2 nM | 1.72 nM | COc1cc(N2CCC(N)CC2)nc(-c2ccc(C#N)c(F)c2)c1-c1ccc(C(F)(F)F)c(O)c1 [Example 99, 4-(6-(4-aminopiperidin-1-yl)-3-(3-hydroxy-4-(trifluoromethyl)phenyl)-4-methoxypyridin-2-yl)-2-fluorobenzonitrile hydrochloride] | 
18 | 4 ± 1.7 nM | 16 nM | COc1ccc(-c2c(OCC3COC3)cc(N3CCC(N)CC3)nc2-c2ccc(C#N)c(F)c2)cc1O [Example 109, 4-(6-(4-aminopiperidin-1-yl)-3-(3-hydroxy-4-methoxyphenyl)-4-(oxetane-3-yl-methoxy)pyridin-2-yl)-2-fluorobenzonitrile hydrochloride] | 
19 | 2.27 nM | 6.61 nM | Cc1noc2cc(-c3c(-c4ccc(C#N)c(F)c4)nc(N4CCC(N)CC4)c4ncoc34)c(F)cc12 [Example 279, 4-(4-(4-aminopiperidin-1-yl)-7-(5-fluoro-3-methylbenzo[d]isoxazol-6-yl)oxazolo[4,5-c]pyridin-6-yl)-2-fluorobenzonitrile] | 
20 | 2.18 nM | 4.91 nM | Cn1cc2cc(-c3cnc(N4CCC(N)CC4)c(C#N)c3-c3ccc(C#N)c(F)c3)ccc2n1 [Example 84, 2-(4-aminopiperidin-1-yl)-4-(4-cyano-3-fluorophenyl)-5-(2-methyl-2H-indazol-5-yl) nicotinonitrile hydrochloride] | 
21 | 1.72 nM | 61.4 nM | Cc1ccc(-c2c(-c3ccc(C#N)cc3)cc3c(N4CCC(N)CC4)nccn23)cc1 [Example 193, 4-(1-(4-aminopiperidin-1-yl)-6-(p-tolyl)pyrrolo[1,2-a]pyrazin-7-yl)benzonitrile hydrochloride] | 
22 | 1.3 ± 0.4 nM | 7.26 nM | N#Cc1ccc(-c2nc(N3CCC(N)CC3)cc(O)c2-c2ccc(F)c(O)c2)cc1F [Example 58, 4-(6-(4-aminopiperidin-1-yl)-3-(4-fluoro-3-hydroxyphenyl)-4-hydroxypyridin-2-yl)-2-fluorobenzonitrile] | 
23 | 1 ± 0.4 nM | 3.87 nM | COc1ccc(-c2c(OC)cc(N3CCC(N)CC3)cc2-c2ccc(C#N)c(F)c2)cc1O [Example 267, 5′-(4-aminopiperidin-1-yl)-3-fluoro-3″-hydroxy-3′,4″-dimethoxy-[1,1′:2′,1″-terphenyl]-4-nitrile trifluoroacetate] | 
24 | 0.8 ± 0.08 nM | 34.2 nM | Cc1ccc(-c2c(-c3ccc(C#N)cc3)cc3c(N4CCC[C@@H](N)C4)nccn23)cc1 [Example 3, (R)-4-(1-(3-aminopiperidin-1-yl)-6-(p-tolyl)pyrrolo[1,2-a]pyrazine-7-yl)benzonitrile] | 
25 | 0.8 ± 0.1 nM | 1.11 nM | COc1ccc(-c2c(-c3ccc(C#N)c(F)c3)nc(N3CCC(N)CC3)n3c(C)cnc23)cc1O [Example 187, 4-(5-(4-aminopiperidin-1-yl)-8-(3-hydroxy-4-methoxyphenyl)-3-methylimidazolo[1,2-c]pyrimidin-7-yl)-2-fluorobenzonitrile] | 
26 | 0.69 ± 0.18 nM | 2.83 nM | COc1ccc(-c2c(-c3ccc(C#N)c(F)c3)nc(N3CCC[C@@H](N)C3)n3ccnc23)cc1O [Example 139, (R)-4-(5-(3-aminopiperidin-1-yl)-8-(3-hydroxy-4-methoxyphenyl)imidazolo[1,2-c]pyrimidin-7-yl)-2-fluorobenzonitrile hydrochloride] | 
27 | 0.61 ± 0.13 nM | 112 nM | N#Cc1ccc(-c2nc(N3CCC(N)CC3)n3ccnc3c2-c2ccc3oc(=O)[nH]c3c2)cc1F [Example 129, 4-(5-(4-aminopiperidin-1-yl)-8-(2-oxo-2,3-dihydrobenzo[d]oxazol-5-yl)imidazolo[1,2-c]pyrimidin-7-yl)-2-fluorobenzonitrile] | 
28 | 0.591 nM | 6.33 nM | Cc1noc2cc(-c3c(-c4ccc(C#N)c(F)c4)nc(N4CCC(N)CC4)c4[nH]ncc34)c(F)cc12 [Example 288, 4-(7-(4-aminopiperidin-1-yl)-4-(5-fluoro-3-methylbenzo[d]isoxazol-6-yl)-1H-pyrazole[3,4-c]pyridin-5-yl)-2-fluorobenzonitrile hydrochloride] | 
29 | 0.1 ± 0.05 nM | 0.305 nM | CNC1CCN(c2nc(-c3ccc(C#N)c(F)c3)c(-c3ccc(OC)c(O)c3)c3nccn23)CC1 [Example 138, 2-fluoro-4-(8-(3-hydroxy-4-methoxyphenyl)-5-(4-(methylamino)piperidin-1-yl)imidazolo[1,2-c]pyrimidin-7-yl)benzonitrile hydrochloride] | 
